Data: PubChem BioAssay (NCI)
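Exposure lasted 48 hours, with cells grown in 96-well plates and compounds tested at five concentrations. TGI marks complete inhibition of growth.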

Columns and labels:
Assay in all cases: NCI anticancer screen, dose series, 48 h
786-0 renal = test system: 786-0 renal
A498 renal = test system: A498 renal
A549 NSCLC = test system: A549 NSCLC
ACHN renal = test system: ACHN renal
CCRF-CEM leukemia = test system: CCRF-CEM leukemia
COLO 205 colon = test system: COLO 205 colon
HCT-116 colon = test system: HCT-116 colon
HOP-62 NSCLC = test system: HOP-62 NSCLC
M14 melanoma = test system: M14 melanoma
MDA-MB-231 breast = test system: MDA-MB-231 breast
MOLT-4 leukemia = test system: MOLT-4 leukemia
NCI-H522 lung = test system: NCI-H522 lung
OVCAR-3 ovarian = test system: OVCAR-3 ovarian
OVCAR-4 ovarian = test system: OVCAR-4 ovarian
OVCAR-8 ovarian = test system: OVCAR-8 ovarian
RXF 393 renal = test system: RXF 393 renal
SN12C renal = test system: SN12C renal
T-47D breast = test system: T-47D breast
U251 CNS = test system: U251 CNS
UACC-257 melanoma = test system: UACC-257 melanoma

Question: How did the TGI (786-0 renal) turn out when CCCCCCOc1ccc(Nc2c(O)c3c(c(O)c2Cl)C(=O)C=CC3=O)cc1 was run?
Answer: > 7.32 µM

Question: And the TGI (A498 renal)?
Answer: > 10 µM

Question: And the TGI (A549 NSCLC)?
Answer: > 10 µM

Question: And the TGI (ACHN renal)?
Answer: > 10 µM

Question: And the TGI (CCRF-CEM leukemia)?
Answer: 8.61 µM

Question: What about the TGI (COLO 205 colon) of the same compound?
Answer: 4.15 µM

Question: What about the TGI (HCT-116 colon) of the same compound?
Answer: > 6.12 µM

Question: What about the TGI (HOP-62 NSCLC) of the same compound?
Answer: > 8.71 µM

Question: What about the TGI (M14 melanoma) of the same compound?
Answer: > 6.68 µM

Question: What about the TGI (MDA-MB-231 breast) of the same compound?
Answer: > 6.11 µM

Question: And the TGI (MOLT-4 leukemia)?
Answer: > 6.98 µM

Question: What about the TGI (NCI-H522 lung) of the same compound?
Answer: 3.98 µM

Question: And the TGI (OVCAR-3 ovarian)?
Answer: 4.77 µM

Question: And the TGI (OVCAR-4 ovarian)?
Answer: > 8.13 µM

Question: What about the TGI (OVCAR-8 ovarian) of the same compound?
Answer: > 5.31 µM

Question: And the TGI (RXF 393 renal)?
Answer: 4.41 µM

Question: And the TGI (SN12C renal)?
Answer: 4.54 µM

Question: And the TGI (T-47D breast)?
Answer: > 10 µM

Question: And the TGI (U251 CNS)?
Answer: > 6.07 µM

Question: What about the TGI (UACC-257 melanoma) of the same compound?
Answer: > 8.89 µM

Question: Which results are given for CCCCCCCCCCCCC/C=C/[C@@H](O)[C@H](COC1OC(CO)C(OC2OC(CO)C(O)C(OC3(C(=O)O)CC(O)C(NC(C)=O)C(C(O)C(O)CO)O3)C2O)C(O)C1O)N=[N+]=[N-] (stereo not given in full)?
Answer: TGI (786-0 renal): > 100 µM; TGI (A498 renal): > 100 µM; TGI (A549 NSCLC): > 100 µM; TGI (ACHN renal): > 100 µM; TGI (CCRF-CEM leukemia): 43.4 µM; TGI (COLO 205 colon): 33.9 µM; TGI (HCT-116 colon): > 100 µM; TGI (HOP-62 NSCLC): 46.2 µM; TGI (M14 melanoma): 34.3 µM; TGI (MDA-MB-231 breast): > 100 µM; TGI (MOLT-4 leukemia): 43.4 µM; TGI (NCI-H522 lung): 70.5 µM; TGI (OVCAR-3 ovarian): > 100 µM; TGI (OVCAR-4 ovarian): > 100 µM; TGI (OVCAR-8 ovarian): 44.9 µM; TGI (RXF 393 renal): 48.8 µM; TGI (SN12C renal): > 100 µM; TGI (T-47D breast): > 100 µM; TGI (U251 CNS): 36.1 µM; TGI (UACC-257 melanoma): > 100 µM

Question: With Cc1cc(C)c(C[C@H]2COC(=O)[C@]2(O)Cc2c(C)cc(C)cc2C)c(C)c1 as the compound, how does the TGI (786-0 renal) read?
Answer: 38.5 µM

Question: What about the TGI (A498 renal) of the same compound?
Answer: 30.9 µM

Question: What about the TGI (A549 NSCLC) of the same compound?
Answer: 34 µM

Question: And the TGI (ACHN renal)?
Answer: 35.7 µM

Question: What about the TGI (CCRF-CEM leukemia) of the same compound?
Answer: > 100 µM

Question: What about the TGI (COLO 205 colon) of the same compound?
Answer: 40.3 µM

Question: And the TGI (HCT-116 colon)?
Answer: 43 µM

Question: And the TGI (HOP-62 NSCLC)?
Answer: 35.8 µM

Question: What about the TGI (M14 melanoma) of the same compound?
Answer: 36.3 µM

Question: What about the TGI (MDA-MB-231 breast) of the same compound?
Answer: 35.9 µM

Question: What about the TGI (MOLT-4 leukemia) of the same compound?
Answer: > 100 µM

Question: What about the TGI (NCI-H522 lung) of the same compound?
Answer: 34.4 µM

Question: What about the TGI (OVCAR-3 ovarian) of the same compound?
Answer: 31.3 µM

Question: What about the TGI (OVCAR-4 ovarian) of the same compound?
Answer: 28.3 µM

Question: What about the TGI (OVCAR-8 ovarian) of the same compound?
Answer: 45.2 µM

Question: And the TGI (RXF 393 renal)?
Answer: 25.4 µM

Question: And the TGI (SN12C renal)?
Answer: 36.8 µM

Question: And the TGI (T-47D breast)?
Answer: 25.2 µM

Question: What about the TGI (U251 CNS) of the same compound?
Answer: 38.4 µM

Question: What about the TGI (UACC-257 melanoma) of the same compound?
Answer: 34.6 µM

Question: O=[N+]([O-])/C(C(Cl)=C(Cl)Cl)=C(/Nc1ccccc1)SCc1ccccc1 was tested. Which TGI (786-0 renal) did it give?
Answer: 31.1 µM

Question: And the TGI (A498 renal)?
Answer: 46.7 µM

Question: What about the TGI (A549 NSCLC) of the same compound?
Answer: 33.5 µM

Question: And the TGI (ACHN renal)?
Answer: 77.4 µM

Question: And the TGI (CCRF-CEM leukemia)?
Answer: 35.5 µM

Question: What about the TGI (COLO 205 colon) of the same compound?
Answer: 42.4 µM

Question: What about the TGI (HCT-116 colon) of the same compound?
Answer: 30.2 µM

Question: And the TGI (HOP-62 NSCLC)?
Answer: 36.1 µM

Question: And the TGI (M14 melanoma)?
Answer: 30.6 µM

Question: And the TGI (MDA-MB-231 breast)?
Answer: 36.4 µM

Question: What about the TGI (MOLT-4 leukemia) of the same compound?
Answer: 37.3 µM

Question: What about the TGI (NCI-H522 lung) of the same compound?
Answer: 47.1 µM

Question: What about the TGI (OVCAR-3 ovarian) of the same compound?
Answer: 28.7 µM

Question: And the TGI (OVCAR-4 ovarian)?
Answer: 66.8 µM

Question: And the TGI (OVCAR-8 ovarian)?
Answer: 34.8 µM

Question: And the TGI (RXF 393 renal)?
Answer: 35.5 µM

Question: What about the TGI (SN12C renal) of the same compound?
Answer: 44.2 µM

Question: What about the TGI (T-47D breast) of the same compound?
Answer: > 100 µM

Question: And the TGI (U251 CNS)?
Answer: 34.6 µM

Question: What about the TGI (UACC-257 melanoma) of the same compound?
Answer: 39.5 µM

Question: For O=C(Oc1cccnc1)c1cc2cc(CCl)ccc2oc1=O, which TGI (786-0 renal) is on record?
Answer: 36.1 µM

Question: What about the TGI (A498 renal) of the same compound?
Answer: > 100 µM

Question: What about the TGI (A549 NSCLC) of the same compound?
Answer: > 100 µM

Question: What about the TGI (ACHN renal) of the same compound?
Answer: > 100 µM

Question: What about the TGI (CCRF-CEM leukemia) of the same compound?
Answer: > 100 µM

Question: And the TGI (COLO 205 colon)?
Answer: 69.5 µM

Question: What about the TGI (HCT-116 colon) of the same compound?
Answer: 38.7 µM

Question: What about the TGI (HOP-62 NSCLC) of the same compound?
Answer: > 100 µM

Question: What about the TGI (M14 melanoma) of the same compound?
Answer: 53.1 µM

Question: What about the TGI (MDA-MB-231 breast) of the same compound?
Answer: 43.2 µM

Question: And the TGI (MOLT-4 leukemia)?
Answer: 61.4 µM

Question: What about the TGI (NCI-H522 lung) of the same compound?
Answer: 35.5 µM

Question: And the TGI (OVCAR-3 ovarian)?
Answer: 57.9 µM

Question: What about the TGI (OVCAR-4 ovarian) of the same compound?
Answer: 60.3 µM

Question: What about the TGI (OVCAR-8 ovarian) of the same compound?
Answer: > 100 µM

Question: And the TGI (RXF 393 renal)?
Answer: 31.5 µM

Question: And the TGI (SN12C renal)?
Answer: 50.1 µM

Question: What about the TGI (T-47D breast) of the same compound?
Answer: 48 µM

Question: And the TGI (U251 CNS)?
Answer: 57.2 µM

Question: What about the TGI (UACC-257 melanoma) of the same compound?
Answer: 98.7 µM

Question: How did the TGI (786-0 renal) turn out when COC(=O)[C@H](Cc1c[nH]c2ccccc12)NC(=O)c1ccc(CNC(=O)/C(C)=C/c2ccccc2)cc1 was run?
Answer: > 100 µM

Question: What about the TGI (A498 renal) of the same compound?
Answer: 64.2 µM

Question: What about the TGI (A549 NSCLC) of the same compound?
Answer: > 100 µM

Question: And the TGI (ACHN renal)?
Answer: > 100 µM

Question: What about the TGI (CCRF-CEM leukemia) of the same compound?
Answer: > 100 µM

Question: And the TGI (COLO 205 colon)?
Answer: 50.5 µM

Question: What about the TGI (HCT-116 colon) of the same compound?
Answer: > 100 µM

Question: What about the TGI (HOP-62 NSCLC) of the same compound?
Answer: > 100 µM

Question: And the TGI (M14 melanoma)?
Answer: 30.1 µM

Question: What about the TGI (MDA-MB-231 breast) of the same compound?
Answer: 60.6 µM

Question: And the TGI (MOLT-4 leukemia)?
Answer: > 100 µM

Question: What about the TGI (NCI-H522 lung) of the same compound?
Answer: 62.8 µM

Question: What about the TGI (OVCAR-3 ovarian) of the same compound?
Answer: > 100 µM

Question: And the TGI (OVCAR-4 ovarian)?
Answer: > 100 µM

Question: What about the TGI (OVCAR-8 ovarian) of the same compound?
Answer: > 100 µM

Question: What about the TGI (RXF 393 renal) of the same compound?
Answer: 7.78 µM

Question: And the TGI (SN12C renal)?
Answer: > 100 µM

Question: What about the TGI (T-47D breast) of the same compound?
Answer: 27.7 µM

Question: And the TGI (U251 CNS)?
Answer: > 100 µM

Question: What about the TGI (UACC-257 melanoma) of the same compound?
Answer: 33.5 µM

Question: O=C(O/C=C\OC1CCCC1(c1ccccc1)c1ccccc1)c1ccccc1 (stereo not given) was tested. Which TGI (786-0 renal) did it give?
Answer: 14 µM

Question: And the TGI (A498 renal)?
Answer: 64.3 µM

Question: What about the TGI (A549 NSCLC) of the same compound?
Answer: > 68.5 µM

Question: What about the TGI (ACHN renal) of the same compound?
Answer: 13.9 µM

Question: And the TGI (CCRF-CEM leukemia)?
Answer: 5.89 µM

Question: And the TGI (COLO 205 colon)?
Answer: 31.5 µM

Question: What about the TGI (HCT-116 colon) of the same compound?
Answer: 6.52 µM

Question: And the TGI (HOP-62 NSCLC)?
Answer: 36.9 µM

Question: What about the TGI (M14 melanoma) of the same compound?
Answer: 9.08 µM

Question: What about the TGI (MDA-MB-231 breast) of the same compound?
Answer: 6.17 µM

Question: And the TGI (MOLT-4 leukemia)?
Answer: > 31 µM

Question: What about the TGI (NCI-H522 lung) of the same compound?
Answer: 43 µM

Question: And the TGI (OVCAR-3 ovarian)?
Answer: 21.3 µM

Question: And the TGI (OVCAR-4 ovarian)?
Answer: 9.8 µM

Question: And the TGI (OVCAR-8 ovarian)?
Answer: 12.1 µM

Question: And the TGI (RXF 393 renal)?
Answer: 15 µM

Question: And the TGI (SN12C renal)?
Answer: 13.7 µM

Question: What about the TGI (T-47D breast) of the same compound?
Answer: 7.42 µM

Question: And the TGI (U251 CNS)?
Answer: 12.4 µM

Question: What about the TGI (UACC-257 melanoma) of the same compound?
Answer: 33 µM
